# Molecular target: Potassium voltage-gated channel subfamily KQT member 4 (Homo sapiens) (UniProt P56696)
# Assay: activation of KCNQ4 potassium current – automated patch clamp, CHO cells, selectivity assay for KCNQ2 activator project, dose response (AID 493043)
# Settings: automated patch clamp current potentiation
# Sequence of Potassium voltage-gated channel subfamily KQT member 4 (Homo sapiens) (P56696 whole entry, looked up): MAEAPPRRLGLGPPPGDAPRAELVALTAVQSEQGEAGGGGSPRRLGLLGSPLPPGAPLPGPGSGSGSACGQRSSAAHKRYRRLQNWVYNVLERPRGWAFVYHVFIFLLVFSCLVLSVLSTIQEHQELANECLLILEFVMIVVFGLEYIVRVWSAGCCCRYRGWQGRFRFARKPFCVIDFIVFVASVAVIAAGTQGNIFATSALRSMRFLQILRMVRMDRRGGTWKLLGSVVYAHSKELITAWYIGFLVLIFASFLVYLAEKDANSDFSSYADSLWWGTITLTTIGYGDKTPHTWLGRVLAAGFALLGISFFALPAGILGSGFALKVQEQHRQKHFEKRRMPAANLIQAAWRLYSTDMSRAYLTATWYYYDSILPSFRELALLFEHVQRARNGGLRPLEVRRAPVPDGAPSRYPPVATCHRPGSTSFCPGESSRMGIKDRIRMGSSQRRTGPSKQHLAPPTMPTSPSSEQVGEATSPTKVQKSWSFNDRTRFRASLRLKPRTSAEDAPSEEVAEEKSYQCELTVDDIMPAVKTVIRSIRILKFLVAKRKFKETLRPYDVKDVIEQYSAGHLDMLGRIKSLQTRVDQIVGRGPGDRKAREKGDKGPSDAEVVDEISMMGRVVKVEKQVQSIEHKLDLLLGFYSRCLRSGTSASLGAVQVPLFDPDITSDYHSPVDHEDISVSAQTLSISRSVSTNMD
smiles,measurement,value
Cc1cc(C)c(NC(=O)C2CC3CCC2C3)c(C)c1 (stereo unspecified),EC50,513 nM

# Reference: PubChem BioAssay AID493043 (Johns Hopkins Ion Channel Center, 2011)
